For 36 cell lines, relative viability results are on record in the supplement of paper PMC10307832.

Compound in the experiment: CN(C/C=C/C1=CC=C(C=C1)Cl)CC2=CC=CC=C2N(CCO)S(=O)(=O)C3=CC=C(C=C3)OC [KN-93] + O=C(CCCCCCC(=O)Nc1ccccc1)NO [Vorinostat] (partner 1 µM)
The experiment is described as follows: relative viability (nuclei count vs DMSO), 5 days (fraction); higher = more cells survive. The method in brief:
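Lung cancer cell lines were pin-tool dosed in 1536-well plates on the day after seeding, with either a lone drug or a fixed anchor-drug dose plus five library-drug doses (not always all listed) in √10 steps. Nuclei were counted on 4× images after 5 days. Relative viability is the ratio of treated-well to vehicle-well nuclei counts, with each value a median of duplicate plates.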

With NCI-H647, the relative viability is 0.532 (first compound 0.08 µM), 0.853 (first compound 0.253 µM), 0.601 (first compound 2.53 µM) and 0.323 (first compound 8 µM).
For NCI-H650 the same measures were 0.495, 0.422, 0.544 and 0.346.
For NCI-H661 the same measures were 0.703, 0.923, 0.641 and 0.535.
With NCI-H727, the relative viability stood at 1.05 (first compound 0.08 µM), 1.3 (first compound 2.53 µM) and 1.01 (first compound 8 µM).
Consider NCI-H838, for which the relative viability by setting is: (first compound 0.08 µM) 0.738; (first compound 0.253 µM) 0.62; (first compound 2.53 µM) 0.663; (first compound 8 µM) 0.592.
For NCI-H1355 the same measures were 0.685, 0.516, 0.739 and 0.578.
On the same counts, the results for NCI-H1395 are 0.844, 0.721, 0.559 and 0.432.
For NCI-H1437 the same measures were 0.608, 0.854, 0.529 and 0.324.
Consider NCI-H1650, for which the relative viability reads like this: (first compound 0.08 µM) 0.468; (first compound 0.253 µM) 0.503; (first compound 2.53 µM) 0.541; (first compound 8 µM) 0.431.
With NCI-H1651, the relative viability (first compound 0.08 µM) was 0.517, the relative viability (first compound 0.253 µM) turned out to be 0.607, the relative viability (first compound 2.53 µM) amounted to 0.601 and the relative viability (first compound 8 µM) turned out to be 0.528.
On the same counts, the results for NCI-H1666 are 1.07, 1.1, 1.04 and 1.06.
On the same counts, the results for NCI-H1734 are 0.808, 0.837, 0.944 and 0.576.
For NCI-H1755 the same measures were 0.844, 0.835, 0.856 and 0.511.
Turning to NCI-H1793, the relative viability reads like this: (first compound 0.08 µM) 0.882; (first compound 0.253 µM) 0.565; (first compound 2.53 µM) 0.89; (first compound 8 µM) 0.249.
Turning to NCI-H1915, the relative viability runs as follows: (first compound 0.08 µM) 0.496; (first compound 0.253 µM) 0.607; (first compound 2.53 µM) 0.608; (first compound 8 µM) 0.491.
For NCI-H1944 the same measures were 0.502, 0.627, 0.522 and 0.249.
On the same counts, the results for NCI-H1975 are 0.614, 0.812, 0.728 and 0.452.
Consider NCI-H1993, for which the relative viability (first compound 0.08 µM) was 0.659, the relative viability (first compound 0.253 µM) worked out at 0.711, the relative viability (first compound 2.53 µM) came out at 0.742 and the relative viability (first compound 8 µM) is 0.702.
On the same counts, the results for NCI-H2009 are 0.716, 0.679, 0.637 and 0.447.
For NCI-H2023, the relative viability amounted to 0.636 (first compound 0.08 µM), 0.67 (first compound 0.253 µM), 0.763 (first compound 2.53 µM) and 0.551 (first compound 8 µM).
With NCI-H2085, the relative viability runs as follows: (first compound 0.08 µM) 0.791; (first compound 0.253 µM) 0.747; (first compound 2.53 µM) 0.747; (first compound 8 µM) 0.578.
On to NCI-H2087, for which the relative viability (first compound 0.08 µM) amounted to 0.707, the relative viability (first compound 0.253 µM) came out at 0.963, the relative viability (first compound 2.53 µM) was 0.861 and the relative viability (first compound 8 µM) came out at 0.54.
For NCI-H2126 the same measures were 0.782, 0.83, 0.727 and 0.704.
With NCI-H2170, the relative viability came to 0.717 (first compound 0.08 µM), 0.907 (first compound 0.253 µM), 0.932 (first compound 2.53 µM) and 0.522 (first compound 8 µM).
For NCI-H2228 the same measures were 0.588, 0.786, 0.655 and 0.346.
For NCI-H2347 the same measures were 0.513, 0.623, 0.674 and 0.458.
On the same counts, the results for NCI-H2405 are 1.02, 1.08, 0.949 and 0.691.
As to NCI-H3122, the relative viability reads like this: (first compound 0.08 µM) 0.595; (first compound 0.253 µM) 1.12; (first compound 2.53 µM) 1.08; (first compound 8 µM) 0.66.
On the same counts, the results for PC-3 [JPC-3] are 0.794, 0.765, 0.756 and 0.637.
For PC-14 the same measures were 0.623, 0.753, 0.649 and 0.625.
On the same counts, the results for RERF-LC-KJ are 0.785, 0.643, 0.696 and 0.577.
In the case of SK-LU-1, the relative viability is, setting by setting: (first compound 0.08 µM) 0.626; (first compound 0.253 µM) 0.865; (first compound 2.53 µM) 0.781; (first compound 8 µM) 0.473.
For SK-MES-1 the same measures were 1.11, 1.12, 1.14 and 0.924.
For SW 900 the same measures were 0.592, 0.333, 0.624 and 0.192.
SW 1573: the relative viability is, setting by setting: (first compound 0.08 µM) 0.685; (first compound 0.253 µM) 0.916; (first compound 2.53 µM) 0.746; (first compound 8 µM) 0.569.
On the same counts, the results for UMC-11 are 0.364, 0.35, 0.359 and 0.267.
